The structures appear in SMILES notation.

This is an account of results in PMC8317065, “UPLC-MS/MS Method for Analysis of Endocannabinoid and Related Lipid Metabolism in Mouse Mucosal Tissue” (Frontiers in Physiology, 2021).

For one test, the system named is DGL. The experiment in a line: DGL activity assay, UPLC-MS/MS, lung protein isolates. Format: biochemical, mouse. As to conditions: for DAG metabolism (normalized response): lung protein 50 μg. How it is done:
Homogenized samples were centrifuged at 800 × g for 15 m at 4°C. The supernatant was collected in a 2.0 mL centrifuge tube and sonicated twice for 10 s. Samples underwent two sequential freeze thaw cycles using liquid N2. Samples were again centrifuged at 800 × g, 15 min, 4°C and the supernatant was collected. Total protein was then quantified via BCA assay and normalized between all samples. Protein isolations for each assay and each tissue were performed separately.
Substrate solutions were prepared by drying stock 19:2 DAG (20 nmol/reaction) under N2 steam (99.998% pure) and reconstituted in a solution of 50 mM Tris–HCl with 0.2% Triton x-100 (pH = 7.0). This solution was bath sonicated for 60 min at room temperature while protein samples were prepared. […] In addition, the ABHD6 inhibitor, WWL 70 (10 μM), was added to lung protein isolates for the 10-minute room temperature incubation to ensure the product of interest was not metabolized ([Tchantchou and Zhang, 2013]). Dose-inhibition experiments included addition of the DGL inhibitor, THL [albeit not selective for DGL, see [Hoover et al. (2008)]; [DiPatrizio et al. (2015)]]. […] The products of the reaction were extracted via lipid extraction methods (see section “Lipid Extraction for Enzyme Assays”) and quantified via UPLC-MS/MS (see section “Quantitation of MAG Biosynthetic Enzyme Activity Assay Products”).
Lipids were extracted using liquid-liquid extraction with chloroform (2.0 mL) followed by 0.8 mL 0.2-micron ultra-purified water. […] Products were detected and quantified via UPLC-MS/MS techniques (see section “UPLC-MS/MS Detection of Analytes”).
Analytes were eluted at a flow rate of 0.4 mL/min and gradient: 80% methanol 0.0–0.5 min, 80–100% methanol 0.5–2.5 min, 100% methanol 2.5–3.0 min, 100–80% methanol 3.0–3.1 min, and 80% methanol 3.1–4.5 min. […] Lipids were quantified using a stable isotope serial dilution method detecting H^+ or Na^+ adducts of the molecular ions [M + H/Na]^+ in multiple reactions monitoring (MRM) mode (variable amounts of product 19:2 MAG versus fixed amount of internal standard [^2H5]-2-AG). […]

Another test deals with human recombinant DGL. Also on record: method as in Bisogno et al., 2006. As to conditions: ref Bisogno et al., 2006, read-out: IC50 reported for human recombinant DGL; cited from earlier work.

The IC50 is the concentration at which inhibition is half-maximal. For `CCCCCCCCCCC[C@@H](C[C@@H]1OC(=O)[C@H]1CCCCCC)OC(=O)[C@H](CC(C)C)NC=O` [THL, tetrahydrolipstatin], the “DAG metabolism (normalized response)” value stood at 10.19 ± 0.29% with DGL (highest inhibitor concentration of range (1,000 nM)) and 90.26 ± 9.07% in the test on DGL (lowest inhibitor concentration of range (3 nM)). In addition, the IC50 is 74.6 nM in the test on DGL (mouse lung protein isolates 50 μg, THL 3-1,000 nM, read-out: IC50, inhibition of DAG metabolism (DGL activity)) and 60 nM with human recombinant DGL.
